Laboratory results as given in patent US6911430B2, “Compositions and methods for treating ileus” (VipoGen, LLC, priority 2003, dated 2005).
Ends that are not written are not given here.

Tested on: Male Wistar rats
Assay: Intestinal transit of Evans blue after laparotomy and manipulation of the intestines (postoperative ileus model)
Format: in vivo, rat
Conditions: single peptide approx. 150 μg per kg i.v. tail vein bolus 1 minute before surgery, skin incision, 20 minute transit period, mean
Description: Male Wistar rats are commonly used to study the mechanisms that regulate gastrointestinal function by several laboratories across the United States and the world. This model is well characterized experimentally and has the added advantage of providing results in a short time frame, limiting the animal's distress.
Two hours prior to start of surgery, the required amount of peptide was measured to the nearest […] and placed into 0.5 ml saline. The suspension was then vortexed for 1 minute and then incubated at room temperature for one hour after. The solution was kept refrigerated until 30 minutes before the onset of surgery. The solution was allowed to warm to room temperature for 30 minutes prior to the surgery. Following this warming period, the solution was placed into a 1 cc insulin syringe for tail vein injection 1 minute prior to surgery.
Male Wistar rats (150-250 g) were fasted for 48 hours with free access to water. This fast was necessary to empty the gastrointestinal tract so that the Evans Blue introduced after the surgery could be accurately tracked. The rats were divided into groups in a randomized way. The randomized groups were then given isoflorane anesthesia, followed by clearing of the abdominal area with 10% antibacterial iodine solution and alcohol and shaving prior to surgery. Isoflorane was administered continuously (3-5%) using a vaporizer. […] Diethyl ether can also be used for anesthesia.
Thereafter, the rats received an i.v. injection (VIP receptor antagonists, PACAP receptor antagonists, or combination thereof were delivered in saline) in the tail vein of the appropriate drug or control for its group one minute before the operation. The peptides included VIP (10-28) and PACAP (6-38). The dosage amount of each peptide administered was approximately 150 μg per kg body weight. For the combination treatment a ratio of 1:1 of a PACAP receptor antagonist to VIP receptor antagonists was used, the total peptide amount being approximately 300 μg per kg body weight. The peptide dosages were consistent animal to animal throughout the study and were administered by bolus injections.
All groups underwent a laparotomy consisting of the incision of the abdominal skin, abdominal muscle layers and peritoneum. The laparatomy was followed by evisceration and manipulation of the small intestine and the caecum. In these experiments, the caecum and small intestine were gently pulled out of the abdominal cavity, unfurled like a fan and exposed on two sterile gauzes covering the abdomen of the rat. […]
Twenty minutes later, the rats were euthanized by an overdose pentobarbital (150 mg/kg i.v. tail vein) and the intestinal transit was measured from the pylorus to the most distal point of the migration of Evans blue and expressed in cm.

Row | Substance | % of the intestinal length traversed by Evan's Blue [%] | intestinal motility: distance Evan's Blue traveled through the intestines [cm]
1 | PACAP(6-38) (FTDSYSRYRKQMAVKKYLAAVLGKRYKQRVKNK; ends and bridges not checked; listed as Homo sapiens) [PACAP-RA] | 32 | 23
2 | VIP(10-28) (YTRLRKQMAVKKYLNSILN; listed as Homo sapiens) [VIP-RA] | 31 | 26
